Laboratory results published in PubChem BioAssay AID2060505 (Molecular Pharmacology Branch, DTP, NCI, 2025).
Values joined by “and” are separate entries in the source; they are usually repeats but may differ in a detail not shown here. Identical values can stand only once.

Test system: 633275-114-R-J1-PDC complex spheroids, viability
Assay: Anticancer human tumor 633275-114-R-J1-PDC patient-derived endometrial adenocarcinoma cell line growth inhibition [GQUAD]
Settings: for viability, T/C: stronger effect = lower value
Text: DNA G-quadruplex Stabilizer Agents in Combinations in Complex Spheroids
A high-throughput screen of multi-cell type tumor spheroids was designed to identify active combinations of DNA G-quadruplex stabilizer agents and targeted small molecules. Complex spheroids include a stromal component modeled by human endothelial cells (HUVEC) and fibroblasts modeled by human mesenchymal stem cells (MSCs). The concentration ranges selected for each drug and investigational agent were based upon clinically achievable concentrations if the clinical Cmax of the agent was known.
Compounds. The drugs and investigational agents: pidnarulex (CX-5461; NSC782164), APTO-253 (NSC789042), BRACO-19 (NSC847499), peposertib (NSC802822), ceralasertib (NSC780249), elimusertib (NSC800525), camonsertib (NSC841442), AZD-1390 (NSC803789), olaparib (NSC753686), talazoparib (NSC767125), ART-558 (NSC835418), sotorasib (NSC818433), MRTX-1133 (NSC836407), SN-38 (NSC673596), topotecan (NSC609699), etoposide (NSC141540), doxorubicin (NSC123127), gemcitabine (NSC613327), 5-fluorouracil (NSC19893), paclitaxel (NSC125973), vemurafenib (NSC761431), panobinostat (NSC761190), R-306465 (JNJ-16241199; NSC773264), adavosertib (NSC754352), TP-3654 (NSC805149), carboplatin (NSC241240), KSQ-4279 (NSC840948), and staurosporine (NSC755774) were obtained from the National Cancer Institute (NCI) Developmental Therapeutics Program Chemical Repository (34). The FDA-approved anticancer drug set is available from the NCI Developmental Therapeutics Program. […] The stock solutions were prepared in dimethyl sulfoxide (DMSO, Sigma-Aldrich, St. Louis, MO, cat. D2650) at 800-fold the tested concentration and stored at -70 degrees C prior to their use. All drugs and investigational agents were tested over a range starting from a high concentration at or near the clinical Cmax and decreasing in half-log increments. If the clinical Cmax for an agent had not been determined, the highest concentration tested was 10 microM.
2.3 Cell Culture. All cells were maintained in an incubator at 37 degrees C and 5% CO2 with 95% humidity. The PDC lines were cultured according to standard operating procedures established by the NCI PDMR. All PDCs were thawed and cultured in Matrigel-coated flasks prepared with a working solution of 1X Ham's F-12 nutrient mix, without supplementation (Invitrogen, cat. 11765054), 100 U/mL penicillin-streptomycin (Invitrogen, cat. 15140122), and 2.5% Matrigel (Corning Inc., cat. 354248) for the first three passages. The 857933-349-R-J2-PDC line was cultured in 6C/Colon 1B media, which includes advanced DMEM/F-12 (Thermo Fisher Scientific, cat. 12634028), 10 mM HEPES (Thermo Fisher Scientific, cat. 15630080), 1X GlutaMAX supplement (Thermo Fisher Scientific, cat. 35050061), 0.1 mg/mL primocin (InvivoGen, cat. ant-pm-2), 10% defined fetal bovine serum, heat inactivated (HyClone Laboratories Inc., cat. SH30070.03HI), 50% L-WRN conditioned media (ATCC, cat. CRL-3276), 1.25 mM N-Acetyl-L-cysteine (Sigma-Aldrich, cat. A9165), 10 mM nicotinamide (Sigma-Aldrich, cat. N0636), 1X B-27 supplement (Thermo Fisher Scientific, cat. 17504044), 1X N-2 supplement (Thermo Fisher Scientific, cat. 17502048), 10 microM Y-27632 dihydrochloride (Tocris Bioscience, cat. 1254), and 50 ng/mL human EGF recombinant protein (Thermo Fisher Scientific, cat. PHG0311). The 485176-168-R4-J1-PDC line was cultured in Panc media, which includes all 6C/Colon 1B media components plus 100 ng/mL human FGF-10 (Thermo Fisher Scientific, cat. 100-26), 500 nM SB-431542 (Selleckchem, cat. S1067), and gastrin (Tocris, cat. 3006).
[…]

[1] = curve of first compound, second compound 0.0316 µM
[2] = curve of first compound, second compound 0.1 µM
[3] = curve of first compound, second compound 0.316 µM
[4] = curve of first compound, second compound 1 µM
[5] = curve of first compound, second compound 3.16 µM
[6] = curve of first compound, second compound 10 µM
[7] = second compound 0.0316 µM, first compound 0.0316 µM
[8] = second compound 0.0316 µM, first compound 0.1 µM
[9] = second compound 0.0316 µM, first compound 0.316 µM
[10] = second compound 0.0316 µM, first compound 1 µM
[11] = second compound 0.0316 µM, first compound 3.16 µM
[12] = second compound 0.0316 µM, first compound 10 µM
[13] = second compound 0.1 µM, first compound 0.0316 µM
[14] = second compound 0.1 µM, first compound 0.1 µM
[15] = second compound 0.1 µM, first compound 0.316 µM
[16] = second compound 0.1 µM, first compound 1 µM
[17] = second compound 0.1 µM, first compound 3.16 µM
[18] = second compound 0.1 µM, first compound 10 µM
[19] = second compound 0.316 µM, first compound 0.0316 µM
[20] = second compound 0.316 µM, first compound 0.1 µM
[21] = second compound 0.316 µM, first compound 0.316 µM
[22] = second compound 0.316 µM, first compound 1 µM
[23] = second compound 0.316 µM, first compound 3.16 µM
[24] = second compound 0.316 µM, first compound 10 µM
[25] = second compound 1 µM, first compound 0.0316 µM
[26] = second compound 1 µM, first compound 0.1 µM
[27] = second compound 1 µM, first compound 0.316 µM
[28] = second compound 1 µM, first compound 1 µM
[29] = second compound 1 µM, first compound 3.16 µM
[30] = second compound 1 µM, first compound 10 µM
[31] = second compound 3.16 µM, first compound 0.0316 µM
[32] = second compound 3.16 µM, first compound 0.1 µM
[33] = second compound 3.16 µM, first compound 0.316 µM
[34] = second compound 3.16 µM, first compound 1 µM
[35] = second compound 3.16 µM, first compound 3.16 µM
[36] = second compound 3.16 µM, first compound 10 µM
[37] = second compound 10 µM, first compound 0.0316 µM
[38] = second compound 10 µM, first compound 0.1 µM
[39] = second compound 10 µM, first compound 0.316 µM
[40] = second compound 10 µM, first compound 1 µM
[41] = second compound 10 µM, first compound 3.16 µM
[42] = second compound 10 µM, first compound 10 µM
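Note: spheroids exposed to the agents for seven days.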
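Throughout, for viability, T/C: percent of DMSO vehicle control viability which is 100%.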

With `CC1COCCN1c1cc(C2(O)CC3CCC(C2)O3)c2cnn(-c3ccn[nH]3)c2n1` (stereo not drawn) + CN(C)c1ccc(Nc2c3ccc(NC(=O)CCN4CCCC4)cc3nc3cc(NC(=O)CCN4CCCC4)ccc23)cc1 the IC50 [1] was 93.5 nM, the IC50 [2] was 92.7 nM and the IC50 [3] was 105 nM. For the same molecule, the IC50 [4] was 65.3 nM, the IC50 [5] was 53.2 nM and the IC50 [6] was under 31.6 nM. For the same molecule, the viability, T/C [7] was 73.6%, the viability, T/C [8] was 48.9% and the viability, T/C [9] was 28.7%. The viability, T/C [10] was 18.4%, the viability, T/C [11] was 13.6% and the viability, T/C [12] was 9.33%. It also gave a viability, T/C [13] of 79.9%, a viability, T/C [14] of 46.5% and a viability, T/C [15] of 30.2%. For the same molecule, the viability, T/C [16] was 19.8%, the viability, T/C [17] was 15.4% and the viability, T/C [18] was 9.07%. The viability, T/C [19] was 70.7%, the viability, T/C [20] was 50.7% and the viability, T/C [21] was 33.1%. For the same molecule, the viability, T/C [22] was 19.2%, the viability, T/C [23] was 15.8% and the viability, T/C [24] was 10.4%. It also gave a viability, T/C [25] of 62.7%, a viability, T/C [26] of 41.7% and a viability, T/C [27] of 30.4%. The viability, T/C [28] was 19.8%, the viability, T/C [29] was 14.4% and the viability, T/C [30] was 9.06%. The viability, T/C [31] was 58.8%, the viability, T/C [32] was 39% and the viability, T/C [33] was 26.7%. The viability, T/C [34] was 15.3%, the viability, T/C [35] was 12% and the viability, T/C [36] was 8.3%. It also gave a viability, T/C [37] of 29.2%, a viability, T/C [38] of 23.9% and a viability, T/C [39] of 17%. For the same molecule, the viability, T/C [40] was 10.9%, the viability, T/C [41] was 8.55% and the viability, T/C [42] was 4.92%.
In the case of `COc1cccc2c1C(=O)c1c(O)c3c(c(O)c1C2=O)CC(O)(C(=O)CO)CC3OC1CC(N)C(O)C(C)O1` (stereo not drawn), the viability, T/C (compound 0.0316 µM) is reported as 62% and 55.6% and 60.7%, the viability, T/C (compound 0.1 µM) is reported as 45.2% and 39% and 44.2% and the viability, T/C (compound 0.316 µM) is reported as 35.7% and 31.5% and 33%. The viability, T/C (compound 1 µM) was 21.9% and 16.8% and 22.1%, the viability, T/C (compound 3.16 µM) was 1.91% and 1.16% and 1.41% and the viability, T/C (compound 10 µM) was 2% and 1.77% and 1.5%. For the same molecule, the IC50 (curve of compound) was 87.6 nM and 48.1 nM and 74.7 nM.
For `CC1COCCN1c1cc(C2(O)CC3CCC(C2)O3)c2cnn(-c3ccn[nH]3)c2n1` (stereo not drawn), the viability, T/C (compound 0.0316 µM) was 70% and 78% and 77.7%, the viability, T/C (compound 0.1 µM) was 54.3% and 51.8% and 50.7% and the viability, T/C (compound 0.316 µM) was 29% and 32.2% and 29.2%. For the same molecule, the viability, T/C (compound 1 µM) was 19.2% and 21% and 21.1%, the viability, T/C (compound 3.16 µM) was 13.5% (2×) and 15.8% and the viability, T/C (compound 10 µM) was 8.78% and 10.1% and 9.68%. The IC50 (curve of compound) was 117 nM and 109 nM and 99.8 nM.
`O=C(NO)c1cnc(N2CCN(S(=O)(=O)c3ccc4ccccc4c3)CC2)nc1` + CN(C)c1ccc(Nc2c3ccc(NC(=O)CCN4CCCC4)cc3nc3cc(NC(=O)CCN4CCCC4)ccc23)cc1 gave an IC50 [1] of 206 nM, an IC50 [2] of 150 nM and an IC50 [3] of 170 nM. It also gave an IC50 [4] of 158 nM, an IC50 [5] of 138 nM and an IC50 [6] of under 31.6 nM. For the same molecule, the viability, T/C [7] was 75.1%, the viability, T/C [8] was 64.9% and the viability, T/C [9] was 40.4%. For the same molecule, the viability, T/C [10] was 22.8%, the viability, T/C [11] was 11.5% and the viability, T/C [12] was 4.89%. The viability, T/C [13] was 68.3%, the viability, T/C [14] was 58.4% and the viability, T/C [15] was 35.5%. For the same molecule, the viability, T/C [16] was 19.6%, the viability, T/C [17] was 10.5% and the viability, T/C [18] was 5.36%. For the same molecule, the viability, T/C [19] was 80.9%, the viability, T/C [20] was 62% and the viability, T/C [21] was 35.7%. It also gave a viability, T/C [22] of 20.1%, a viability, T/C [23] of 12.1% and a viability, T/C [24] of 4.98%. For the same molecule, the viability, T/C [25] was 70.1%, the viability, T/C [26] was 58.3% and the viability, T/C [27] was 37.9%. The viability, T/C [28] was 18.3%, the viability, T/C [29] was 12.2% and the viability, T/C [30] was 5.49%. The viability, T/C [31] was 62.6%, the viability, T/C [32] was 55% and the viability, T/C [33] was 37.5%. The viability, T/C [34] was 15.6%, the viability, T/C [35] was 9.85% and the viability, T/C [36] was 2.65%. The viability, T/C [37] was 30.4%, the viability, T/C [38] was 26.4% and the viability, T/C [39] was 16.3%. For the same molecule, the viability, T/C [40] was 6.49%, the viability, T/C [41] was 1.21% and the viability, T/C [42] was 0.19%.
